# Experimental data as given in ChEMBL document CHEMBL4613237, “A novel phytosterol isolated from Datura inoxia, RinoxiaB is a potential cure colon cancer agent by targeting BAX/Bcl2 pathway” (Bioorg Med Chem, 2020).
# Active and inactive are the calls of the source. The calls are words filed in the database; no cut-off is given here.
# Legend:
# HCT-15 [1] = assay: Induction of DNA damage in human HCT15 cells assessed as head DNA at 4 uM by neutral comet assay relative to control (reference value: 99.27%); assay type: functional
# HCT-15 [2] = assay: Induction of cell cycle arrest in human HCT15 cells assessed as accumulation of cells at G2/M phase at 10 uM after 24 hrs by propidium iodide staining based flow cytometry (reference value: 13.77%); assay type: functional
# HCT-15 [3] = assay: Induction of DNA damage in human HCT15 cells assessed as head length at 10 uM by neutral comet assay (reference value: 53 pixel); assay type: functional
# HCT-15 [4] = assay: Induction of apoptosis in human HCT15 cells assessed as reduction in bcl-2 protein expression at 4 to 10 uM after 24 hrs by Western blot analysis; assay type: functional, cell-based
# HCT-15 [5] = assay: Induction of apoptosis in human HCT15 cells assessed as upregulation of p53 protein expression after 24 hrs by Western blot analysis; assay type: functional, cell-based
# HCT-15 [6] = assay: Induction of morphological changes in human HCT15 cells assessed as formation of spherical bodies at 4 to 10 uM after 24 hrs by inverted light microscopic analysis; assay type: functional, cell-based
# HCT-15 [7] = assay: Induction of apoptosis in human HCT15 cells assessed as late apoptotic cells at 4 uM after 24 hrs by annexin V-FITC and propidium iodide staining based flow cytometry (reference value: 0%); assay type: functional
# HCT-15 [8] = assay: Induction of DNA damage in human HCT15 cells assessed as olive tail moment at 4 uM by neutral comet assay (reference value: 0.19); assay type: functional
# HCT-15 [9] = assay: Induction of apoptosis in human HCT15 cells assessed as upregulation of p21 protein expression after 24 hrs by Western blot analysis; assay type: functional, cell-based
# HCT-15 [10] = assay: Induction of DNA damage in human HCT15 cells assessed as comet length at 10 uM by neutral comet assay (reference value: 57 pixel); assay type: functional
# HCT-15 [11] = assay: Antiproliferative activity against human HCT15 cells at 4 uM after 24 hrs by MTT assay relative to control; assay type: functional; settings: HCT-15, 24 h
# HCT-15 [12] = assay: Induction of cell cycle arrest in human HCT15 cells assessed as accumulation of cells at G2/M phase at 4 uM after 24 hrs by propidium iodide staining based flow cytometry (reference value: 13.77%); assay type: functional
# HCT-15 [13] = assay: Induction of cell cycle arrest in human HCT15 cells assessed as accumulation of cells at S phase at 10 uM after 24 hrs by propidium iodide staining based flow cytometry (reference value: 8.73%); assay type: functional
# HCT-15 [14] = assay: Induction of DNA damage in human HCT15 cells assessed as tail length at 4 uM by neutral comet assay (reference value: 4 pixel); assay type: functional
# HCT-15 [15] = assay: Induction of DNA damage in human HCT15 cells assessed as head DNA at 10 uM by neutral comet assay relative to control (reference value: 99.27%); assay type: functional
# HCT-15 [16] = assay: Induction of apoptosis in human HCT15 cells assessed as increase in cytochrome c protein expression at 4 to 10 uM after 24 hrs by Western blot analysis; assay type: functional, cell-based
# HCT-15 [17] = assay: Induction of DNA damage in human HCT15 cells assessed as comet length at 4 uM by neutral comet assay (reference value: 57 pixel); assay type: functional
# HCT-15 [18] = assay: Induction of apoptosis in human HCT15 cells assessed as necrotic cells at 10 uM after 24 hrs by annexin V-FITC and propidium iodide staining based flow cytometry (reference value: 0.07%); assay type: functional
# HCT-15 [19] = assay: Induction of apoptosis in human HCT15 cells assessed as viable cells at 4 uM after 24 hrs by annexin V-FITC and propidium iodide staining based flow cytometry (reference value: 99.93%); assay type: functional; settings: HCT-15, 24 h, read-out: Activity
# HCT-15 [20] = assay: Induction of apoptosis in human HCT15 cells assessed as increase in caspase-3 protein expression at 4 to 10 uM after 24 hrs by Western blot analysis; assay type: functional, cell-based
# HCT-15 [21] = assay: Induction of apoptosis in human HCT15 cells assessed as increase in bax protein expression at 4 to 10 uM after 24 hrs by Western blot analysis; assay type: functional, cell-based
# HCT-15 [22] = assay: Induction of morphological changes in human HCT15 cells assessed as membrane blebbing at 4 to 10 uM after 24 hrs by inverted light microscopic analysis; assay type: functional, cell-based
# HCT-15 [23] = assay: Induction of apoptosis in human HCT15 cells assessed as early apoptotic cells at 4 uM after 24 hrs by annexin V-FITC and propidium iodide staining based flow cytometry (reference value: 0%); assay type: functional
# HCT-15 [24] = assay: Induction of DNA damage in human HCT15 cells assessed as head length at 4 uM by neutral comet assay (reference value: 53 pixel); assay type: functional
# HCT-15 [25] = assay: Antiproliferative activity against human HCT15 cells assessed as reduction in cell viability after 24 hrs by MTT assay; assay type: functional, cell-based
# HCT-15 [26] = assay: Downregulation of cyclin B1 expression in human HCT15 cells at 4 to 10 uM after 24 hrs by Western blot anlaysis; assay type: functional, cell-based
# HCT-15 [27] = assay: Induction of cell cycle arrest in human HCT15 cells assessed as accumulation of cells at G0/G1 phase at 4 uM after 24 hrs by propidium iodide staining based flow cytometry (reference value: 77.48%); assay type: functional
# HCT-15 [28] = assay: Induction of DNA damage in human HCT15 cells assessed as tail moment at 10 uM by neutral comet assay (reference value: 0.02); assay type: functional
# HCT-15 [29] = assay: Induction of cell cycle arrest in human HCT15 cells assessed as accumulation of cells at G0/G1 phase at 10 uM after 24 hrs by propidium iodide staining based flow cytometry (reference value: 77.48%); assay type: functional
# HCT-15 [30] = assay: Induction of morphological changes in human HCT15 cells assessed as cell shrinkage after 24 hrs by inverted light microscopic analysis; assay type: functional, cell-based
# HCT-15 [31] = assay: Induction of DNA damage in human HCT15 cells assessed as tail DNA at 4 uM by neutral comet assay relative to control (reference value: 0.72%); assay type: functional
# HCT-15 [32] = assay: Induction of apoptosis in human HCT15 cells assessed as necrotic cells at 4 uM after 24 hrs by annexin V-FITC and propidium iodide staining based flow cytometry (reference value: 0.07%); assay type: functional
# HCT-15 [33] = assay: Induction of nuclear morphological changes in human HCT15 cells assessed as increase in propidium iodide positive cells at 4 to 10 uM after 24 hrs by PI-staining based fluorescence microscopic analysis; assay type: functional, cell-based
# HCT-15 [34] = assay: Induction of DNA damage in human HCT15 cells assessed as tail length at 10 uM by neutral comet assay (reference value: 4 pixel); assay type: functional
# HCT-15 [35] = assay: Induction of apoptosis in human HCT15 cells assessed as late apoptotic cells at 10 uM after 24 hrs by annexin V-FITC and propidium iodide staining based flow cytometry (reference value: 0%); assay type: functional
# HCT-15 [36] = assay: Induction of apoptosis in human HCT15 cells assessed as viable cells at 10 uM after 24 hrs by annexin V-FITC and propidium iodide staining based flow cytometry (reference value: 99.93%); assay type: functional; settings: HCT-15, 24 h, read-out: Activity
# HCT-15 [37] = assay: Induction of morphological changes in human HCT15 cells assessed as lack of colony forming ability at 4 to 10 uM after 24 hrs by inverted light microscopic analysis; assay type: functional, cell-based
# HCT-15 [38] = assay: Induction of DNA damage in human HCT15 cells assessed as tail DNA at 10 uM by neutral comet assay relative to control (reference value: 0.72%); assay type: functional
# HCT-15 [39] = assay: Induction of apoptosis in human HCT15 cells assessed as increase in caspase-9 protein expression at 4 to 10 uM after 24 hrs by Western blot analysis; assay type: functional, cell-based
# HCT-15 [40] = assay: Induction of apoptosis in human HCT15 cells assessed as early apoptotic cells at 10 uM after 24 hrs by annexin V-FITC and propidium iodide staining based flow cytometry (reference value: 0%); assay type: functional
# HCT-15 [41] = assay: Induction of DNA damage in human HCT15 cells assessed as olive tail moment at 10 uM by neutral comet assay (reference value: 0.19); assay type: functional
# HCT-15 [42] = assay: Downregulation of cyclin D1 expression in human HCT15 cells at 4 to 10 uM after 24 hrs by Western blot anlaysis; assay type: functional, cell-based
# HCT-15 [43] = assay: Induction of DNA damage in human HCT15 cells assessed as tail moment at 4 uM by neutral comet assay (reference value: 0.02); assay type: functional
# HCT-15 [44] = assay: Induction of cell cycle arrest in human HCT15 cells assessed as accumulation of cells at S phase at 4 uM after 24 hrs by propidium iodide staining based flow cytometry (reference value: 8.73%); assay type: functional
compound,measurement,setting,value
C[C@H]1C(=O)O[C@H]2C[C@]1(C)OC[C@H]2[C@H]1CC[C@H]2[C@@H]3CC=C4CC=CC(=O)[C@]4(C)[C@H]3CC[C@]12C,Activity,HCT-15 [1],54.72%
same,Activity,HCT-15 [2],21.57%
same,Activity,HCT-15 [3],19 pixel
same,Activity,HCT-15 [4],Active
same,Activity,HCT-15 [5],Dose-dependent effect
same,Activity,HCT-15 [6],Active
same,Activity,HCT-15 [7],58.17%
same,Activity,HCT-15 [8],5.56
same,Activity,HCT-15 [9],Dose-dependent effect
same,Activity,HCT-15 [10],36 pixel
same,inhibition at 4 µM,HCT-15 [11],50.7%
same,Activity,HCT-15 [12],19.67%
same,Activity,HCT-15 [13],16.46%
same,Activity,HCT-15 [14],12 pixel
same,Activity,HCT-15 [15],34.54%
same,Activity,HCT-15 [16],Active
same,Activity,HCT-15 [17],35 pixel
same,Activity,HCT-15 [18],2.57%
same,viability at 4 µM,HCT-15 [19],21.9%
same,Activity,HCT-15 [20],Active
same,Activity,HCT-15 [21],Active
same,Activity,HCT-15 [22],Active
same,Activity,HCT-15 [23],17.79%
same,Activity,HCT-15 [24],23 pixel
same,inhibition,HCT-15 [25],Dose-dependent effect
same,IC50,"HCT-15 [25]; HCT-15, 24 h",4 µM
same,inhibition,HCT-15 [26],Active
same,Activity,HCT-15 [27],66.97%
same,Activity,HCT-15 [28],11.12
same,Activity,HCT-15 [29],61.24%
same,Activity,HCT-15 [30],Dose-dependent effect
same,Activity,HCT-15 [31],45.27%
same,Activity,HCT-15 [32],2.1%
same,Activity,HCT-15 [33],Active
same,Activity,HCT-15 [34],17 pixel
same,Activity,HCT-15 [35],63.26%
same,viability at 10 µM,HCT-15 [36],14.7%
same,Activity,HCT-15 [37],Active
same,Activity,HCT-15 [38],65.45%
same,Activity,HCT-15 [39],Active
same,Activity,HCT-15 [40],19.48%
same,Activity,HCT-15 [41],8.56
same,inhibition,HCT-15 [42],Active
same,Activity,HCT-15 [43],5.43
same,Activity,HCT-15 [44],13.34%
